In one series the target is T1, recombinant human HDAC6 (Homo sapiens, UniProt Q9UBN7).
T1 sequence (Q9UBN7 1-1215): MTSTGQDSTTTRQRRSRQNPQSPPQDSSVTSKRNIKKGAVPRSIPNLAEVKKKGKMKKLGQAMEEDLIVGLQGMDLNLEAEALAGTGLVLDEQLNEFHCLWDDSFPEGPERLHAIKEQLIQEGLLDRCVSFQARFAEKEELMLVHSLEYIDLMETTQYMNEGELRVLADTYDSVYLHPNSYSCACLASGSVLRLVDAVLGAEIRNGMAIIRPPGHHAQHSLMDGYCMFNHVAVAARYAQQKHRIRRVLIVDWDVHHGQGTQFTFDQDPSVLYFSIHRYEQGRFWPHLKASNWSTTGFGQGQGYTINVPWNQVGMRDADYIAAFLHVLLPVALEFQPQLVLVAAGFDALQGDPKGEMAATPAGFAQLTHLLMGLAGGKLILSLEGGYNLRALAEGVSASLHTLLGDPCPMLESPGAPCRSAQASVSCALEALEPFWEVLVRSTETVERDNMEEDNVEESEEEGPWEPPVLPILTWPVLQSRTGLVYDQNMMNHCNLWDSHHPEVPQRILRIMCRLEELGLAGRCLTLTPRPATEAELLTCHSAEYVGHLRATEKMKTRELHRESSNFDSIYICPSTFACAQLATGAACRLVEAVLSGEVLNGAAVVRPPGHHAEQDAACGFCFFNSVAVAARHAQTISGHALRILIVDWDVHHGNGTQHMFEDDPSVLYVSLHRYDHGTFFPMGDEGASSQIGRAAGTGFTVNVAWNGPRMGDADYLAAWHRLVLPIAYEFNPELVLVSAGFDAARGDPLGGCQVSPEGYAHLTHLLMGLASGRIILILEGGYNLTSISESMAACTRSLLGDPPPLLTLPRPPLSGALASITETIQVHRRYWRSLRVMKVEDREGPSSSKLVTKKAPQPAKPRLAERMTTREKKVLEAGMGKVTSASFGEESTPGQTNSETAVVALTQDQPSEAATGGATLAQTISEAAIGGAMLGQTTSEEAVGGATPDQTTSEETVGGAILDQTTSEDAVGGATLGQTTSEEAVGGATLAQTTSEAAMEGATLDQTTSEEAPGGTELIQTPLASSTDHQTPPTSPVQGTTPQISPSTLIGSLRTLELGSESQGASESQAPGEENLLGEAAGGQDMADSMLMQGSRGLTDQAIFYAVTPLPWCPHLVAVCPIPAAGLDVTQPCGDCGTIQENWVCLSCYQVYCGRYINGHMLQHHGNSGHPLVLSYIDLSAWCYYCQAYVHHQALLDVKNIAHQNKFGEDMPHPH
Kind of series: Enzymatic screening on recombinant human HDAC6. Particulars: Table 2; read-out: HDAC6 IC50. It is filed as biochemical. In a few lines: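 Substrates were Fluor de Lys, Fluor de Lys-Green or trifluoroacetyl-L-lysine, in 25 mM Tris-HCl pH 8, 130 mM NaCl, 0.05% Tween-20, 10% glycerol. They were added after isoform-dependent preincubation of recombinant human enzyme with compound at 30 °C, and the reaction also ran at 30 °C.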

Series [1] in a line: Stability in human plasma. It is filed as in vitro ADME. The settings on record: after 4 hours, 37° C. The procedure:
In order to evaluate the stability to circulating enzymes, test compounds were incubated in human and rat plasma at 37° C. in a thermostated oscillating bath. Each test compound was incubated at μM (50 μM when the samples were analysed by UV/HPLC, 1 or 2 μM when the samples were analysed by LC-MS/MS) concentration for 0, 15, 30 min and 1, 2 and 4 hours. The reaction was stopped placing tubes on ice bath and adding acidified acetonitrile. After centrifugation for 10 minutes at 14000 rpm, an aliquot of the supernatant was diluted with water, filtered with 0.45 μm syringe filters and injected in HPLC-UV or in LC-MS/MS. The percentages of amount remaining at the various times of incubation with respect to initial amount were calculated. The half-life in plasma was also calculated.

The subject of series [2] is B 697 promyelocytic cell line. As to the kind of experiment: Cytotoxicity on 697 cell line (CellTiter 96). Type of series: cell-based. The settings on record: 72 hours incubation, read-out: 697 TOXICITY
In a few lines:
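Mitochondrial-function readout (CellTiter 96 Aqueous One) after 72 h compound exposure, begun 24 h post-seeding. Dose ranges: 697 cells, 1 to 10000 nM at 2×10^4 cells/well; PBMCs, 1.5 to 10000 nM at 5×10^5 cells/well.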

Series [3] can be described thus: Stability to Phase I metabolism in human S9 liver fraction. It is filed as in vitro ADME. The procedure: Test compounds were incubated in rat and human liver S9 fraction at 37° C. up to 90 minutes in order to evaluate their stability to Phase I metabolism by hepatic enzymes. […] The reaction was stopped placing samples on ice bath and adding acidified acetonitrile. After centrifugation (10 minutes at 14000 rpm) an aliquot of the supernatant was diluted water, filtered with 0.45 μm regenerated cellulose syringe filters and injected in HPLC-UV or in LC-MS/MS. The percentages of the amount remaining at the various incubation times with respect to the initial amount were calculated. The intrinsic clearance was also calculated.

Series [4] is described as follows: Stability to Phase I metabolism in rat S9 liver fraction. Type of series: in vitro ADME. Particulars: after 90 min, 37° C. In a few lines: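 Phase I stability in human and rat hepatic S9 at 37 °C, sampled up to 90 min. Samples were stopped with acidified acetonitrile on ice, then quantified by HPLC-UV or LC-MS/MS.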
A further series can be described thus: Stability in rat plasma. It is filed as in vitro ADME. The settings on record: after 4 hours, 37° C. In a few lines: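 Compounds incubated at 37° C in rat or human plasma at 50 μM (UV/HPLC) or 1 or 2 μM (LC-MS/MS) for 0–4 h. Reaction stopped with acidified acetonitrile on ice; percent remaining versus initial amount and plasma half-life calculated.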

The results in this text go back to patent US11351178B2, “Selective HDAC6 inhibitors” (ITALFARMACO S.P.A., priority 2017, dated 2022).

Consider `CN1CCN(Cc2ccc(-c3nnc(Sc4ccc(C(=O)NO)cc4)n3C)o2)CC1` [comp. 209, 4-[[4-methyl-5-[5-[(4-methylpiperazin-1-yl)methyl]-2-furyl]-1,2,4-triazol-3-yl]sulfanyl]benzenecarbohydroxamic acid], for which the IC50 amounted to 11 nM on recombinant human HDAC6 and 15400 nM in series [2]. Besides, the “residual percentage in human plasma” value in series [1] was determined as 77%. In addition, the “residual percentage in human S9 fraction” value in series [3] (human, 90 min, pH 7.4) is given as 100%. The “residual percentage in rat S9 fraction” value in series [4] is 84%. Further, the “residual percentage in rat plasma” value in the series “Stability in rat plasma” amounted to 69%.

As to `CCc1oc(-c2nnc(Sc3c(F)cc(C(=O)NO)cc3F)n2C)cc1CN1CCCC1` [comp. 208, 4-[[5-[5-ethyl-4-(pyrrolidin-1-ylmethyl)-2-furyl]-4-methyl-1,2,4-triazol-3-yl]sulfanyl]-3,5-difluoro-benzenecarbohydroxamic acid], the IC50 at recombinant human HDAC6 was determined as 4 nM; in series [2] it was 15400 nM. Moreover, the “residual percentage in human plasma” value in series [1] stood at 87%. Also, the “residual percentage in human S9 fraction” value in series [3] (human, 90 min, pH 7.4) was 81%. In series [4], the “residual percentage in rat S9 fraction” value was 81%. In addition, the “residual percentage in rat plasma” value in “Stability in rat plasma” is recorded as 81%.

Regarding `Cn1c(Sc2c(F)cc(C(=O)NO)cc2F)nnc1-c1ccc(CN2CCOCC2)o1` [comp. 204, 3,5-difluoro-4-[[4-methyl-5-[5-(morpholinomethyl)-2-furyl]-1,2,4-triazol-3-yl]sulfanyl]benzenecarbohydroxamic acid], the IC50 is 7 nM at recombinant human HDAC6 and 15400 nM in series [2]. For the same molecule, in series [1], the “residual percentage in human plasma” value was 79%. Also, the “residual percentage in human S9 fraction” value in series [3] (human, 90 min, pH 7.4) came to 84%. The “residual percentage in rat S9 fraction” value in series [4] is 72%. In addition, the “residual percentage in rat plasma” value in “Stability in rat plasma” worked out at 89%.

As for `Cn1c(Sc2c(F)cc(C(=O)NO)cc2F)nnc1-c1ccc(CN2CCCCC2)o1` [comp. 212, 3,5-difluoro-4-[[4-methyl-5-[5-(1-piperidylmethyl)-2-furyl]-1,2,4-triazol-3-yl]sulfanyl]benzenecarbohydroxamic acid], the IC50 amounted to 6 nM on recombinant human HDAC6 and 15400 nM in series [2]. Also, the “residual percentage in human plasma” value in series [1] was found to be 83%. Besides, the “residual percentage in human S9 fraction” value in series [3] (human, 90 min, pH 7.4) is recorded as 75%. Moreover, in series [4], the “residual percentage in rat S9 fraction” value is given as 60%. Also, the “residual percentage in rat plasma” value in “Stability in rat plasma” was determined as 81%.

Regarding `CN(c1ccc(-c2nnc(Sc3c(F)cc(C(=O)NO)cc3F)s2)cc1)S(C)(=O)=O` [compound 187, 3,5-difluoro-4-[[5-[4-[methyl(methylsulfonyl)amino]phenyl]-1,3,4-thiadiazol-2-yl]sulfanyl]benzenecarbohydroxamic acid], the IC50 on recombinant human HDAC6 stood at 55 nM. Moreover, the “residual percentage in human plasma” value in series [1] is listed as 92%. The “residual percentage in human S9 fraction” value in series [3] (human, 90 min, pH 7.4) is reported as 54%. The “residual percentage in rat S9 fraction” value in series [4] worked out at 17%. In the series “Stability in rat plasma”, the “residual percentage in rat plasma” value is reported as 101%.

Consider `O=C(NO)c1cc(F)c(Sc2nnc(-c3ccccc3)o2)c(F)c1` [comp. 192, 3,5-difluoro-4-[(5-phenyl-1,3,4-oxadiazol-2-yl)sulfanyl]benzenecarbohydroxamic acid], for which the IC50 on recombinant human HDAC6 turned out to be 31 nM. The “residual percentage in human plasma” value in series [1] is 100%. Also, in series [3] (human, 90 min, pH 7.4), the “residual percentage in human S9 fraction” value came to 43%. The “residual percentage in rat S9 fraction” value in series [4] came to 17%. The “residual percentage in rat plasma” value in “Stability in rat plasma” came to 90%.

Turning to `O=C(NO)c1ccc(Cn2nnnc2-c2ccccc2)cc1` [comp. 215, 4-[(5-phenyltetrazol-1-yl)methyl]benzenecarbohydroxamic acid], in series [1], the “residual percentage in human plasma” value is 90%. Further, the IC50 in series [2] turned out to be 340 nM. In addition, in series [3] (human, 90 min, pH 7.4), the “residual percentage in human S9 fraction” value came to 82%. In addition, the “residual percentage in rat S9 fraction” value in series [4] is reported as 65%. Besides, in “Stability in rat plasma”, the “residual percentage in rat plasma” value turned out to be 57%.

Regarding `O=C(NO)c1cc(F)c(Cc2nnc(-c3ccccc3)s2)c(F)c1` [compound 198, 3,5-difluoro-N-hydroxy-4-((5-phenyl-1,3,4-thiadiazol-2-yl)methyl)benzamide], the IC50 at recombinant human HDAC6 is 5 nM. Further, the “residual percentage in human plasma” value in series [1] was found to be 95%. The “residual percentage in human S9 fraction” value in series [3] (human, 90 min, pH 7.4) was found to be 51%. Further, the “residual percentage in rat S9 fraction” value in series [4] is recorded as 6%. For the same molecule, in the series “Stability in rat plasma”, the “residual percentage in rat plasma” value is 63%.

For the molecule `COCCN(CCOC)c1cncc(-c2nc(Cc3c(F)cc(C(=O)NO)cc3F)no2)c1` [compound 200, 4-[[5-[5-[bis(2-methoxyethyl)amino]-3-pyridyl]-1,2,4-oxadiazol-3-yl]methyl]-3,5-difluoro-benzenecarbohydroxamic acid], the IC50 at recombinant human HDAC6 worked out at 8 nM. In addition, the “residual percentage in human plasma” value in series [1] came out at 102%. Moreover, the “residual percentage in human S9 fraction” value in series [3] (human, 90 min, pH 7.4) amounted to 37%. For the same molecule, the “residual percentage in rat S9 fraction” value in series [4] turned out to be 32%. Further, in the series “Stability in rat plasma”, the “residual percentage in rat plasma” value is recorded as 96%.

Consider `O=C(NO)c1ccc(Cc2nnc(-c3ccccc3)[nH]2)cc1` [comp. 216, 4-[(5-phenyl-4H-1,2,4-triazol-3-yl)methyl]benzenecarbohydroxamic acid], for which the “residual percentage in human plasma” value in series [1] is given as 91%. Moreover, in series [2], the IC50 was 288 nM. Moreover, in series [3] (human, 90 min, pH 7.4), the “residual percentage in human S9 fraction” value was determined as 84%. In addition, the “residual percentage in rat S9 fraction” value in series [4] amounted to 62%. In addition, the “residual percentage in rat plasma” value in the series “Stability in rat plasma” turned out to be 89%.

On to `O=C(NO)c1cc(F)c(Cc2nnc(-c3cncc(N4CCOCC4)c3)s2)c(F)c1` [compound 197, 3,5-difluoro-4-[[5-(5-morpholino-3-pyridyl)-1,3,4-thiadiazol-2-yl]methyl]benzenecarbohydroxamic acid], for which the IC50 at recombinant human HDAC6 came to 10 nM. In addition, the “residual percentage in human plasma” value in series [1] worked out at 96%. The “residual percentage in human S9 fraction” value in series [3] (human, 90 min, pH 7.4) worked out at 86%. Also, in series [4], the “residual percentage in rat S9 fraction” value is 62%. Also, in the series “Stability in rat plasma”, the “residual percentage in rat plasma” value is 82%.

On to `O=C(NO)c1cc(F)c(Cc2noc(-c3cncc(N4CC5(COC5)C4)c3)n2)c(F)c1` [compound 201, 3,5-difluoro-4-[[5-[5-(2-oxa-6-azaspiro[3.3]heptan-6-yl)-3-pyridyl]-1,2,4-oxadiazol-3-yl]methyl]benzenecarbohydroxamic acid], for which, at recombinant human HDAC6, the IC50 was 16 nM. Also, the “residual percentage in human plasma” value in series [1] stood at 88%. The “residual percentage in human S9 fraction” value in series [3] (human liver S9 fraction, after 90 min, 37° C.) is given as 75%. Also, the “residual percentage in rat S9 fraction” value in series [4] was 34%. Further, the “residual percentage in rat plasma” value in “Stability in rat plasma” is 95%.
